Assay results: patent publication US9204640B2, “2-acyloxy-pyrrolin-4-ones” (BAYER INTELLECTUAL PROPERTY GMBH, priority 2011, dated 2015)

Legend:
Assay type in all cases: in vivo
[1] = system: Myzus persicae; experiment: Myzus test (MYZUPE spray treatment); settings: application rate 500 g/ha, after 5 days, Chinese cabbage leaf discs
Outline: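 Chinese cabbage leaf discs carrying all stages of green peach aphid sprayed with compound diluted in emulsifier-containing water to the desired concentration. Mortality scored as % after 5 days, where 100% means all aphids dead and 0% none.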

[2] = system: Myzus persicae; experiment: Myzus persicae test; hydroponic treatment (MYZUPE Sys); settings: 20 ppm, 6dat
Description: Myzus Persicae Test; Hydroponic Treatment (MYZUPE Sys)
To produce a suitable preparation of active compound, 1 part by weight of active compound is mixed with the stated amounts of solvent and emulsifier, and the concentrate is diluted with water to the desired concentration.
The active compound preparation is mixed with water. The stated concentration refers to the amount of active compound per volume unit of water (mg/l=ppm). The treated water is filled into vessels containing a pea plant (Pisum sativum), and the plant is the infested with the green peach aphid (Myzus persicae).
After the desired period of time, the kill in % is determined 100% means that all of the aphids have been killed; 0% means that none of the aphids have been killed.

[3] = system: Echinocloa crus-galli; experiment: Herbicidal post-emergence action, ECHCG; settings: 20 g/ha
Outline: (§1)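 Weeds sown in sandy loam, grown in greenhouse 2–3 weeks and treated post-emergence at one-leaf stage (or BBCH 10–13, 5–10 cm) with WP/EC formulations sprayed at various dosages (600–800 l/ha water, 0.1–0.2% wetting agent). Visual rating after about 3 weeks as % activity versus untreated (100% = dead).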

[4] = system: Tetranychus urticae; experiment: Tetranychus test (TETRUR spray treatment; OP-resistant in Example 10); settings: application rate 100 g/ha, after 5 days, bean leaf discs
Outline: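 Bean leaf discs (Phaseolus vulgaris) infested with all stages of Tetranychus urticae sprayed with compound diluted in emulsifier-containing water. In the standard test, % kill scored after 5 days. The OP-resistant strain test uses the same method with scoring after a set period; 100% = all mites dead, 0% = none.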

[5] = system: Digitaria sanguinalis; experiment: Herbicidal post-emergence action, DIGSA; settings: 20 g/ha
Outline: as §1

[6] = system: Myzus persicae; experiment: Myzus persicae test (MYZUPE Tau), leaf dipping; settings: 20 ppm, 6dat
Description: Myzus Persicae Test (MYZUPE Tau) To produce a suitable preparation of active compound, 1 part by weight of active compound is mixed with the stated amount of solvent and emulsifier, and the concentrate is diluted with emulsifier-containing water to the desired concentration. Cabbage leaves (Brassica oleracea) which are heavily infested by the green peach aphid (Myzus persicae) are treated by dipping into the active compound preparation of the desired concentration. After the desired period of time, the kill in % is determined. 100% means that all of the aphids have been killed; 0% means that none of the aphids have been killed.

With `CCOC(=O)OC1=C(c2c(C)cc(I)cc2CC)C(=O)C2(CCC(OC)CC2)N1` (mixture of isomers) [I-b-2] the “effect in % (aphids killed)” value [1] was 100%, the “% Activity MYZUPE sys” value [2] was 99% and the “% Activity ECHCG” value [3] was 70%. The “effect in % (spider mites killed)” value [4] was 80%, the “% Activity DIGSA” value [5] was 90% and the “% Activity MYZUPE tau” value [6] was 90%.
